Results: US20230271933A1, “HETEROCYCLIC IMMUNOMODULATOR” (Beijing Innocare Pharma Tech Co., Ltd., priority 2020, published 2023)

Legend:
[1] = system: IL-2; assay: Stimulation of IL-2 secretion in anti-CD3-stimulated hPBMC (ELISA); assay type: cell-based, human; settings: Homo sapiens, anti-CD3 antibody, 72 hours
Description: (§1) The immunomodulatory function of the compound of the present invention was evaluated by detecting its effect on the secretion amount of TNFα and IL-2 in cells from the human peripheral blood mononuclear cells (hPBMC) by the enzyme linked immunosorbent assay (ELISA) method.
(§2) The peripheral blood of healthy volunteers was collected by using EDTA anticoagulant tubes, and diluted with phosphate buffered saline (PBS) containing 2% fetal bovine serum (Gibco, Cat. No. 10099-141) in an equal volume ratio. 30 mL of the resulting diluted sample was transferred into a Sepmate-50 centrifuge tube (Stemcell, Cat. No. 86450) to which 15 mL of a density-gradient centrifugation liquid (Sigma, Cat. No. 10771) had been added in advance, and centrifuged at room temperature at 1200×g for 10 minutes. The liquid containing PBMC in the upper layer was transferred to a new 50-mL centrifuge tube, and centrifuged at room temperature at 300×g for 8 minutes. The supernatant was discarded, and the resulting PBMC was resuspended to 5×10^6/mL by using RPMI 1640 medium (Gibco, Cat. No. 72400-047). 80 μL of the resulting suspension was added to each well in a 96-well plate.
(§3) Each concentration was further diluted 50-fold with RPMI 1640 medium. 10 μL of each compound solution was added into the cells in the above 96-well plate. The 96-well plate was placed in an incubator, and the cells were cultured at 37° C. and 5% CO2 for 1 hour. 10 μL of LPS (Sigma, Cat. No. L-2880) with a concentration of 100 ng/mL was added, and the cells were continuously cultured in the incubator at 37° C. and 5% CO2 overnight. Supernatants were collected for the detection of TNFα.
The above-mentioned 96-well plate can also be placed in an incubator, and the cells were cultured at 37° C. and 5% CO2 for 1 hour. 10 μL of anti-CD3 antibody (Thermo Fisher, Cat. No. 14-0037-82) with a concentration of 500 ng/mL was added, and the cells were continuously cultured in the incubator at 37° C. and 5% CO2 for 72 hours. Supernatants were collected for the detection of IL-2.
(§4) TNFα and IL-2 were detected respectively according to each instruction of the ELISA kits (R&D, Cat. No. DY210 and DY202, respectively) to obtain the OD450 values for each well. The group containing 0.2% DMSO medium was used as 0% inhibition or stimulation. The XLfit software was used to plot the compound inhibition or stimulation curve and calculate the corresponding IC50 or EC50.

[2] = system: TNFα; assay: Inhibition of TNFα secretion in LPS-stimulated hPBMC (ELISA); assay type: cell-based; settings: Homo sapiens, overnight, read-out: IC50 (nM) for the inhibition of the TNFa secretion
Description: as §1, §2, §3, §4

[3] = system: NCI-H929 human myeloma cells; assay: Inhibition of the proliferation of NCI-H929 cells (luminescent cell viability, CTG); assay type: cell-based; settings: Homo sapiens, NCI-H929, 144 h, 6 days, CellTiter-Glo
Description: The effect of the compounds of the present invention on the proliferation of NCI-H929 human myeloma cells was evaluated by using a luminescent cell viability test experiment.
The compound was dissolved and diluted to 5 mM in DMSO, and then serially diluted 4-fold in DMSO to a minimum concentration of 0.31 μM. Each concentration was further diluted 50-fold with RPMI 1640 medium (Thermo Fisher, Cat. No. 72400-047). If the IC50 value of the compound was relatively low, the initial concentration of the compound could be lowered.
NCI-H929 cells (Nanjing Cobioer, Cat. No. CBP60243) were cultured in RPMI 1640 complete medium [containing 10% FBS (GIBCO, Cat. No. 10099-141) and 100 units/mL penicillin-streptomycin (Thermo Fisher, Cat. No. 15140122)]. Cells (15000 cells/mL) were plated in 90 μL of the complete medium in a 96-well plate and cultured overnight, and then 10 μL of the compound solution was added into each well. The cells were cultured in an incubator at 37° C. and 5% CO2 for 6 days. Then the cell culture plate was taken out and balanced to room temperature according to the instruction of the CellTilter-Glo (CTG) kit (Promega, Cat. No. G7572). 50 μL CTG reagent was added for complete lysis, the plate was placed at room temperature for 10 minutes, and the luminescence signal was read with a microplate reader (EnVision, Perkin Elmer). The group containing 0.2% DMSO medium was used as 0% inhibition. The XLfit software was used to plot the compound inhibition curve and calculate the inhibitory IC50 value.

[4] = In vivo pharmacokinetic experiment in rats; settings: male Sprague-Dawley rats, n = 3; for F: PO 5 mpk vs IV 1 mpk; for clearance / Vd / AUC(0-t) / Cmax: rat, plasma; for clearance / Vd: 1 mg/kg, IV 1 mpk; for Vd: read-out: VSS; for AUC(0-t) / Cmax: 5 mg/kg, PO 5 mpk
Description: The compound to be tested was dissolved in 5% DMA+20% Solutol+75% Saline vehicle to prepare a 0.5 mg/mL administration solution.
2 mL/kg of the administration solution was administered through the intravenous injection (IV) at a dose of 1 mg/kg to three fed male Sprague-Dawley rats, respectively. Blood samples were collected at 0.083, 0.25, 0.5, 1, 2, 4, 8 and 24 hours after administration. 10 mL/kg of the administration solution was administered by gavage (PO) at a dose of 5 mg/kg to other three fed male Sprague-Dawley rats, respectively. Blood samples were collected at 0.25, 0.5, 1, 2, 4, 8 and 24 hours after administration.
The concentration of the compound to be tested in plasma was obtained with the LC-MS/MS quantitative analysis with an API-4500 mass spectrometer, and the limit of quantitation (LOQ) for the plasma was 1 ng/mL.

EC50 [1] [nM]	IC50 [2] [nM]	IC50 [3] [nM]	F [4] [%]	clearance [4] [mL/min/kg]	Vd [4] [L/kg]	AUC(0-t) [4] [ng·h/mL]	Cmax [4] [ng/mL]	Compound
5.5	1.3	0.1	27	5.2	0.56	4280	555	C[C@H](c1ccc(COc2cccc3c2CN([C@H]2CCC(=O)NC2=O)C3=O)cc1)N1CCN(c2ccc(C#N)cn2)CC1 [Compound 16, 6-(4-((R)-1-(4-(((2-((S)-2,6-dioxopiperidin-3-yl)-1-oxoisoindolin-4-yl)oxy)methyl)phenyl)-ethyl)piperazin-1-yl)nicotinonitrile]
3.8	0.5	0.04	18	14	0.65	1010	318	C[C@H](c1ccc(COc2cccc3c2CN([C@H]2CCC(=O)NC2=O)C3=O)cc1)N1CCN(c2ccc(C#N)nc2)CC1 [Compound 21, 5-(4-((R)-1-(4-(((2-((S)-2,6-dioxopiperidin-3-yl)-1-oxoisoindolin-4-yl)oxy)methyl)phenyl)ethyl)piperazin-1-yl)-2-cyanopyridine]
26	4.7	0.6	30	2.2	0.36	13000	1440	C[C@H](c1ccc(COc2cccc3c2CN([C@H]2CCC(=O)NC2=O)C3=O)cc1)N1CCN(c2ncc(C#N)cc2F)CC1 [Compound 22, 6-(4-((R)-1-(4-(((2-((S)-2,6-dioxopiperidin-3-yl)-1-oxoisoindolin-4-yl)oxy)methyl)phenyl)-ethyl)piperazin-1-yl)-5-fluoronicotinonitrile]
2.3	2.8	0.1	14	1	0.27	11800	1800	C[C@H](c1ccc(COc2cccc3c2CN([C@H]2CCC(=O)NC2=O)C3=O)cc1)N1CCN(c2ccc(C#N)cc2F)CC1 [Compound 6, 4-(4-((R)-1-(4-(((2-((S)-2,6-dioxopiperidin-3-yl)-1-oxoisoindolin-4-yl)oxy)methyl)phenyl)ethyl)piperazin-1-yl)-3-fluorobenzonitrile]
